Values of other authors as cited in patent US12137716B2, “Methods of liver disease treatment” (priority 2015, dated 2024).
“Also recorded” adds a separate entry of the source.

What was measured:
[1] = test system: patients with cirrhosis
[2] = test system: mice fed either a MCD or MD diet
[3] = test system: NASH model mice; settings: NASH mouse model
[4] = test system: ethanol-fed rats
[5] = test system: patients with severe ALD; settings: added to corticosteroids
[6] = test system: patients with both alcoholic and non-alcoholic liver diseases; settings: patients with liver disease
[7] = oral administration
[8] = test system: rats and baboons fed ethanol
[9] = test system: ethanol-induced fibrotic mouse model
[10] = test system: CCl (4) induced cirrhosis; settings: CCl4 induced
[11] = test system: HCV patients
[12] = test system: HBV patients

N=C(N)NCCC[C@H](N)C(=O)O [Arginine]
hepatic microcirculation and tissue oxygenation [1]: improves hepatic microcirculation and tissue oxygenation

N[C@@H](CCC(=O)N[C@@H](CS)C(=O)NCC(=O)O)C(=O)O [GSH, Glutathione]
GSH in the mitochondria [2]: restored GSH in the mitochondria | hepatocellular injury [2]: ameliorated hepatocellular injury

C[N+](C)(C)C[C@H](O)CC(=O)[O-] [L-Carnitine]
progression of NASH [3]: prevents progression of NASH

CC(=O)N[C@@H](CS)C(=O)O [NAC, N-acetylcysteine]
hepatic fatty acid accumulation [4]: decrease hepatic fatty acid accumulation | inflammatory markers [4]: decrease inflammatory markers | hepatorenal syndrome, infection, short-term mortality [5]: decrease hepatorenal syndrome, infection, and short-term mortality

C[S+](CC[C@H](N)C(=O)O)C[C@H]1O[C@@H](n2cnc3c(N)ncnc32)[C@H](O)[C@@H]1O (stereo partly drawn) [SAMe, S-adenosylmethionine]
hepatic glutathione levels [6]: significant increase; also recorded: increases hepatic GSH | oral bioavailability [7]: low bioavailability | GSH in the mitochondria [2]: restored GSH in the mitochondria | hepatocellular injury [2]: ameliorated hepatocellular injury | hepatic GSH levels ([8]; ethanol-fed): restored hepatic GSH levels | mitochondrial lesions and leakage ([8]; ethanol-fed): positive effect on mitochondrial lesions and leakage | oxidative stress and hepatic stellate cell activation [9]: attenuate oxidative stress and hepatic stellate cell activation

COc1cc(/C=C/C(=O)CC(=O)/C=C/c2ccc(O)c(OC)c2)ccc1O [curcumin, Curcumin]
cirrhosis [10]: reverses

Phosphatidylcholine [PC]
albumin-bound hydroxyproline levels [11]: decreased levels | liver injury ([8]; CCl4 and ethanol-induced): attenuated CCI4 and ethanol-induced liver injury | procollagen-III-peptide levels [12]: reduced levels
